# Test results taken from publication PMC5218480 (PLoS ONE, 2017).
# System: MV-4-11 cells
# Assay: Gene expression microarray analysis (Affymetrix PrimeView) and GSEA
# Assay type: cell-based, human
# Parameters: RFU PODN (11730768_x_at) / Fold change /veh PODN (11730768_x_at) / RFU LINC00158 (11744669_a_at) / Fold change /veh LINC00158 (11744669_a_at) / RFU DUSP10 (11751237_a_at) / Fold change /veh DUSP10 (11751237_a_at) / RFU ID3 (11757404_x_at) / Fold change /veh ID3 (11757404_x_at) / RFU PLEKHG5 (11737974_s_at) / Fold change /veh PLEKHG5 (11737974_s_at) / RFU LRRC4B (11730491_at) / Fold change /veh LRRC4B (11730491_at) / RFU GIMAP4 (11747438_a_at) / Fold change /veh GIMAP4 (11747438_a_at) / RFU KRT8 (11758183_x_at) / Fold change /veh KRT8 (11758183_x_at) / RFU CNN1 (11734310_a_at) / Fold change /veh CNN1 (11734310_a_at) / RFU VPS37D (11726825_at) / Fold change /veh VPS37D (11726825_at) / RFU C10orf10 (11716522_x_at) / Fold change /veh C10orf10 (11716522_x_at) / RFU KIR2DL2 /// KIR2DL4 /// KIR2DL5A /// KIR2DL5B /// KIR2DS1 /// KIR2DS2 /// KIR2DS3 /// KIR2DS4 /// KIR3DL3 /// KIR3DL3 /// KIR3DS1 (11738374_at) / Fold change /veh KIR2DL2 /// KIR2DL4 /// KIR2DL5A /// KIR2DL5B /// KIR2DS1 /// KIR2DS2 /// KIR2DS3 /// KIR2DS4 /// KIR3DL3 /// KIR3DL3 /// KIR3DS1 (11738374_at) / RFU C1QL1 (11718748_at) / Fold change /veh C1QL1 (11718748_at) / RFU TMPRSS4 (11747572_a_at) / Fold change /veh TMPRSS4 (11747572_a_at) / RFU HAMP (11756126_x_at) / Fold change /veh HAMP (11756126_x_at) / RFU RNFT2 (11725882_a_at) / Fold change /veh RNFT2 (11725882_a_at) / RFU NR4A2 (11747474_a_at) / Fold change /veh NR4A2 (11747474_a_at) / RFU ABCC12 (11746883_a_at) / Fold change /veh ABCC12 (11746883_a_at) / RFU TMEM136 (11760407_x_at) / Fold change /veh TMEM136 (11760407_x_at) / RFU CLDN22 /// WWC2 (11732394_at) / Fold change /veh CLDN22 /// WWC2 (11732394_at) / RFU HLA-DPB1 (11760878_x_at) / Fold change /veh HLA-DPB1 (11760878_x_at) / RFU SPINT1 (11716480_a_at) / Fold change /veh SPINT1 (11716480_a_at) / RFU GAP43 (11754022_s_at) / Fold change /veh GAP43 (11754022_s_at) / RFU A4GNT (11735810_at) / Fold change /veh A4GNT (11735810_at) / RFU PRB3 (11715151_x_at) / Fold change /veh PRB3 (11715151_x_at) / RFU TUBB4B (11761932_at) / Fold change /veh TUBB4B (11761932_at) / RFU CAPN14 (11732068_a_at) / Fold change /veh CAPN14 (11732068_a_at) / RFU TMCC2 (11721928_a_at) / Fold change /veh TMCC2 (11721928_a_at) / RFU IRGQ (11745062_a_at) / Fold change /veh IRGQ (11745062_a_at) / RFU FAM174B (11720279_a_at) / Fold change /veh FAM174B (11720279_a_at) / RFU TMPRSS4 (11748680_a_at) / Fold change /veh TMPRSS4 (11748680_a_at) / RFU FAM212B (11763350_a_at) / Fold change /veh FAM212B (11763350_a_at) / RFU PLEKHG5 (11743358_a_at) / Fold change /veh PLEKHG5 (11743358_a_at) / RFU ZSCAN30 (11745921_a_at) / Fold change /veh ZSCAN30 (11745921_a_at) / RFU CMKLR1 (11741424_a_at) / Fold change /veh CMKLR1 (11741424_a_at) / RFU LOC101060620 /// MAPK8IP1 (11723275_at) / Fold change /veh LOC101060620 /// MAPK8IP1 (11723275_at) / RFU SPTSSB (11747773_x_at) / Fold change /veh SPTSSB (11747773_x_at) / RFU PRSS12 (11739890_at) / Fold change /veh PRSS12 (11739890_at) / RFU BIN1 (11741810_x_at) / Fold change /veh BIN1 (11741810_x_at) / RFU WNT11 (11732464_a_at) / Fold change /veh WNT11 (11732464_a_at) / RFU C10orf10 (11716521_a_at) / Fold change /veh C10orf10 (11716521_a_at) / RFU C5orf56 (11738089_at) / Fold change /veh C5orf56 (11738089_at) / RFU CYB561 (11721691_x_at) / Fold change /veh CYB561 (11721691_x_at) / RFU ANKRD19P (11752326_a_at) / Fold change /veh ANKRD19P (11752326_a_at) / RFU OR2T12 /// OR2T33 /// OR2T8 (11738714_s_at) / Fold change /veh OR2T12 /// OR2T33 /// OR2T8 (11738714_s_at) / RFU VCAN (11748164_a_at) / Fold change /veh VCAN (11748164_a_at) / RFU JSRP1 (11732532_at) / Fold change /veh JSRP1 (11732532_at) / RFU KRTAP10-11 (11738290_x_at) / Fold change /veh KRTAP10-11 (11738290_x_at) / RFU MYO3A (11730013_a_at) / Fold change /veh MYO3A (11730013_a_at) / RFU EBF3 (11725865_a_at) / Fold change /veh EBF3 (11725865_a_at) / RFU CAMK2N1 (11719241_x_at) / Fold change /veh CAMK2N1 (11719241_x_at) / RFU C5orf56 (11738088_a_at) / Fold change /veh C5orf56 (11738088_a_at) / RFU OLFML3 (11715873_a_at) / Fold change /veh OLFML3 (11715873_a_at) / RFU LOC100653217 /// NTM (11731650_a_at) / Fold change /veh LOC100653217 /// NTM (11731650_a_at) / RFU MAPK11 (11762145_a_at) / Fold change /veh MAPK11 (11762145_a_at) / RFU FIZ1 (11724087_x_at) / Fold change /veh FIZ1 (11724087_x_at) / RFU OASL (11726364_x_at) / Fold change /veh OASL (11726364_x_at) / RFU SOX15 (11748057_x_at) / Fold change /veh SOX15 (11748057_x_at) / RFU CD79A (11719716_a_at) / Fold change /veh CD79A (11719716_a_at) / RFU HIST1H1D (11736915_at) / Fold change /veh HIST1H1D (11736915_at) / RFU CASKIN2 (11723855_a_at) / Fold change /veh CASKIN2 (11723855_a_at) / RFU LOC730098 (11760151_x_at) / Fold change /veh LOC730098 (11760151_x_at) / RFU OR4N2 (11742367_at) / Fold change /veh OR4N2 (11742367_at) / RFU PRRT2 (11749266_a_at) / Fold change /veh PRRT2 (11749266_a_at) / RFU SNX32 (11753110_a_at) / Fold change /veh SNX32 (11753110_a_at) / RFU CDHR5 (11726645_a_at) / Fold change /veh CDHR5 (11726645_a_at) / RFU RCAN1 (11760418_a_at) / Fold change /veh RCAN1 (11760418_a_at) / RFU FAM167A (11723789_a_at) / Fold change /veh FAM167A (11723789_a_at) / RFU FAM26E (11764081_at) / Fold change /veh FAM26E (11764081_at) / RFU ISYNA1 (11749810_s_at) / Fold change /veh ISYNA1 (11749810_s_at) / RFU ACY1 (11761880_at) / Fold change /veh ACY1 (11761880_at) / RFU 11764098_at / Fold change /veh 11764098_at / RFU SAMD14 (11745864_x_at) / Fold change /veh SAMD14 (11745864_x_at) / RFU NPB (11741838_a_at) / Fold change /veh NPB (11741838_a_at) / RFU TMPRSS6 (11731388_a_at) / Fold change /veh TMPRSS6 (11731388_a_at) / RFU KRTAP10-2 (11738614_at) / Fold change /veh KRTAP10-2 (11738614_at) / RFU ARHGAP8 /// PRR5-ARHGAP8 (11727945_x_at) / Fold change /veh ARHGAP8 /// PRR5-ARHGAP8 (11727945_x_at) / RFU KRTAP5-7 /// NADSYN1 (11734609_at) / Fold change /veh KRTAP5-7 /// NADSYN1 (11734609_at) / RFU RASL12 (11751679_a_at) / Fold change /veh RASL12 (11751679_a_at) / RFU CDKN2B (11736163_a_at) / Fold change /veh CDKN2B (11736163_a_at) / RFU PRF1 (11729649_at) / Fold change /veh PRF1 (11729649_at) / RFU, ZNF638 /// ZNF638-IT1 / Fold change vs veh, ZNF638 /// ZNF638-IT1 / RFU, PANK3 / Fold change vs veh, PANK3 / RFU, SH3YL1 / Fold change vs veh, SH3YL1 / RFU, ZEB2 / Fold change vs veh, ZEB2 / RFU, NRIP1 / Fold change vs veh, NRIP1 / RFU, PTTG1IP / Fold change vs veh, PTTG1IP / RFU, CAPN2 / Fold change vs veh, CAPN2 / RFU, MED14 / Fold change vs veh, MED14 / RFU, SNORA58 / Fold change vs veh, SNORA58 / RFU, C1orf63 / Fold change vs veh, C1orf63 / RFU, LRRFIP1 / Fold change vs veh, LRRFIP1 / RFU, NDUFAF7 / Fold change vs veh, NDUFAF7 / RFU, SLC12A2 / Fold change vs veh, SLC12A2 / RFU, IBTK / Fold change vs veh, IBTK / RFU, ESF1 / Fold change vs veh, ESF1 / Fold change vs veh, TMEM50B / RFU, TAOK1 / Fold change vs veh, TAOK1 / RFU, ACBD3 / Fold change vs veh, ACBD3 / RFU, TMA16 / Fold change vs veh, TMA16 / RFU, RWDD3 / Fold change vs veh, RWDD3 / RFU, BCAT1 / Fold change vs veh, BCAT1 / RFU, EDEM3 / Fold change vs veh, EDEM3 / RFU, TMEM33 / Fold change vs veh, TMEM33 / RFU, WDR75 / Fold change vs veh, WDR75 / RFU, AHCTF1 / Fold change vs veh, AHCTF1 / RFU, TFRC / Fold change vs veh, TFRC / RFU, ZDHHC17 / Fold change vs veh, ZDHHC17 / RFU, NOM1 / Fold change vs veh, NOM1 / RFU, ARL8B / Fold change vs veh, ARL8B / RFU, ZBTB11 / Fold change vs veh, ZBTB11 / RFU, TAMM41 / Fold change vs veh, TAMM41 / RFU, KIAA1704 /// LOC100996395 / Fold change vs veh, KIAA1704 /// LOC100996395 / RFU, ING1 / Fold change vs veh, ING1 / RFU, TRMT61B / Fold change vs veh, TRMT61B / RFU, FUBP3 / Fold change vs veh, FUBP3 / RFU, TP53 / Fold change vs veh, TP53 / RFU, TNKS2 / Fold change vs veh, TNKS2 / RFU, ZFP14 / Fold change vs veh, ZFP14 / RFU, ACTR2 / Fold change vs veh, ACTR2 / RFU, PPP3R1 / Fold change vs veh, PPP3R1 / RFU, PIK3R1 / Fold change vs veh, PIK3R1 / RFU, HNRNPA1 / Fold change vs veh, HNRNPA1 / RFU, RNF170 / Fold change vs veh, RNF170 / RFU, ZNF28 / Fold change vs veh, ZNF28 / RFU, RNGTT / Fold change vs veh, RNGTT / RFU, OGT / Fold change vs veh, OGT / RFU, BRD1 / Fold change vs veh, BRD1 / RFU, MARS / Fold change vs veh, MARS / RFU, ZNF655 / Fold change vs veh, ZNF655 / RFU, FAHD1 / Fold change vs veh, FAHD1 / RFU, BDP1 / Fold change vs veh, BDP1 / RFU, LRRCC1 / Fold change vs veh, LRRCC1 / RFU, ARID1A / Fold change vs veh, ARID1A / RFU, ZNF146 / Fold change vs veh, ZNF146 / RFU, ZNF330 / Fold change vs veh, ZNF330 / RFU, GPN3 / Fold change vs veh, GPN3 / RFU, C9orf123 / Fold change vs veh, C9orf123 / RFU, N4BP2L2 / Fold change vs veh, N4BP2L2 / RFU, ARFIP1 / Fold change vs veh, ARFIP1 / RFU, FAM179B / Fold change vs veh, FAM179B / RFU, BCL10 / Fold change vs veh, BCL10 / RFU, UHRF1BP1L / Fold change vs veh, UHRF1BP1L / RFU, BET1 / Fold change vs veh, BET1 / RFU, CNOT2 / Fold change vs veh, CNOT2 / RFU, ZNF268 / Fold change vs veh, ZNF268 / Fold change vs veh, ZNF507 / RFU, DGCR2 / Fold change vs veh, DGCR2 / RFU, WDSUB1 / Fold change vs veh, WDSUB1 / Fold change vs veh, HSP90B1 /// MIR3652 / RFU, ADSS / Fold change vs veh, ADSS / RFU, GK / Fold change vs veh, GK / RFU, ZNF148 / Fold change vs veh, ZNF148 / RFU, TAF9 / Fold change vs veh, TAF9 / RFU, SLC1A5 / Fold change vs veh, SLC1A5 / RFU, SLMO2 / Fold change vs veh, SLMO2 / RFU, ABCC4 / Fold change vs veh, ABCC4 / RFU, LOC101060439 /// RAP1B / Fold change vs veh, LOC101060439 /// RAP1B / RFU, RFX7 / Fold change vs veh, RFX7 / RFU, GTPBP10 / Fold change vs veh, GTPBP10 / RFU, CNEP1R1 / Fold change vs veh, CNEP1R1 / RFU, BIVM-ERCC5 /// ERCC5 / Fold change vs veh, BIVM-ERCC5 /// ERCC5 / RFU, ILF3 / Fold change vs veh, ILF3 / RFU 11762660_at / Fold change /veh 11762660_at / RFU VCAN (11757783_s_at) / Fold change /veh VCAN (11757783_s_at) / RFU DDX43 (11728927_at) / Fold change /veh DDX43 (11728927_at) / RFU KRT8 (11758188_x_at) / Fold change /veh KRT8 (11758188_x_at) / RFU NKD1 (11759106_at) / Fold change /veh NKD1 (11759106_at) / RFU SRD5A1 (11742802_a_at) / Fold change /veh SRD5A1 (11742802_a_at) / RFU TPSAB1 /// TPSB2 (11721975_s_at) / Fold change /veh TPSAB1 /// TPSB2 (11721975_s_at) / RFU GSTM3 (11746129_a_at) / Fold change /veh GSTM3 (11746129_a_at) / RFU IL23R (11737362_x_at) / Fold change /veh IL23R (11737362_x_at) / RFU TMEM51 (11727254_a_at) / Fold change /veh TMEM51 (11727254_a_at) / RFU PIWIL2 (11732686_x_at) / Fold change /veh PIWIL2 (11732686_x_at) / RFU ORM1 (11744905_x_at) / Fold change /veh ORM1 (11744905_x_at) / RFU CCDC152 (11743942_at) / Fold change /veh CCDC152 (11743942_at) / RFU ECM1 (11717891_a_at) / Fold change /veh ECM1 (11717891_a_at) / RFU IL23R (11748794_a_at) / Fold change /veh IL23R (11748794_a_at) / RFU TNFAIP8L3 (11732012_x_at) / Fold change /veh TNFAIP8L3 (11732012_x_at) / RFU MBOAT4 (11741988_at) / Fold change /veh MBOAT4 (11741988_at) / RFU 11764193_at / Fold change /veh 11764193_at / RFU TMEM53 (11763286_at) / Fold change /veh TMEM53 (11763286_at) / RFU MAGEB2 (11727129_at) / Fold change /veh MAGEB2 (11727129_at) / RFU TMEM200A (11744735_a_at) / Fold change /veh TMEM200A (11744735_a_at) / RFU CCDC152 (11751479_a_at) / Fold change /veh CCDC152 (11751479_a_at) / RFU FAM211A (11726209_a_at) / Fold change /veh FAM211A (11726209_a_at) / RFU RGS16 (11746705_a_at) / Fold change /veh RGS16 (11746705_a_at) / RFU VCAN (11755009_s_at) / Fold change /veh VCAN (11755009_s_at) / RFU RHOB (11743442_s_at) / Fold change /veh RHOB (11743442_s_at) / RFU RGS16 (11720943_a_at) / Fold change /veh RGS16 (11720943_a_at) / RFU RGS16 (11720944_at) / Fold change /veh RGS16 (11720944_at) / RFU, VPS4B / Fold change vs veh, VPS4B / RFU, CREB1 / Fold change vs veh, CREB1 / RFU, DNAJC13 / Fold change vs veh, DNAJC13 / RFU, GNAQ / Fold change vs veh, GNAQ / RFU, CDK5R1 / Fold change vs veh, CDK5R1 / RFU, ZRANB3 / Fold change vs veh, ZRANB3 / RFU, CUL4A / Fold change vs veh, CUL4A / RFU, CCNY / Fold change vs veh, CCNY / RFU, UFL1 / Fold change vs veh, UFL1 / RFU, COG3 / Fold change vs veh, COG3 / RFU, DIAPH2 / Fold change vs veh, DIAPH2 / RFU, SKA2 / Fold change vs veh, SKA2 / RFU, AFF3 / Fold change vs veh, AFF3 / RFU, LMF1 / Fold change vs veh, LMF1 / RFU, IPO11 / Fold change vs veh, IPO11 / RFU, DFFB / Fold change vs veh, DFFB / RFU, FOXP1 / Fold change vs veh, FOXP1 / RFU, CARD8 / Fold change vs veh, CARD8 / RFU, STRN3 / Fold change vs veh, STRN3 / RFU, ADK / Fold change vs veh, ADK / RFU, RASSF2 / Fold change vs veh, RASSF2 / RFU, WIPF1 / Fold change vs veh, WIPF1 / RFU, LARP1B / Fold change vs veh, LARP1B / RFU, RASA1 / Fold change vs veh, RASA1 / RFU, RB1 / Fold change vs veh, RB1 / RFU, PPFIA1 / Fold change vs veh, PPFIA1 / RFU, MAT2A / Fold change vs veh, MAT2A / RFU, CCT5 / Fold change vs veh, CCT5 / RFU, WDR92 / Fold change vs veh, WDR92 / RFU, CUX1 / Fold change vs veh, CUX1 / RFU, TTC7A / Fold change vs veh, TTC7A / RFU, TMEM135 / Fold change vs veh, TMEM135 / RFU, DEPTOR / Fold change vs veh, DEPTOR / RFU, CPM / Fold change vs veh, CPM / RFU, DNAJB6 / Fold change vs veh, DNAJB6 / RFU, CACNA2D3 / Fold change vs veh, CACNA2D3 / RFU, DTX4 / Fold change vs veh, DTX4 / RFU, TFCP2 / Fold change vs veh, TFCP2 / RFU, GMCL1 /// GMCL1P1 / Fold change vs veh, GMCL1 /// GMCL1P1 / RFU, AEBP2 / Fold change vs veh, AEBP2 / RFU, SNHG1 /// SNORD22 /// SNORD25 /// SNORD26 /// SNORD27 /// SNORD28 /// SNORD29 /// SNORD31 / Fold change vs veh, SNHG1 /// SNORD22 /// SNORD25 /// SNORD26 /// SNORD27 /// SNORD28 /// SNORD29 /// SNORD31 / Fold change (Aza/veh), C12orf56 (ProbeSet 11735607_a_at) / Fold change (ACY-1035/veh), C12orf56 (ProbeSet 11735607_a_at) / Fold change (Aza/veh), FGFR1OP (ProbeSet 11751329_s_at) / Fold change (ACY-1035/veh), FGFR1OP (ProbeSet 11751329_s_at) / Fold change (Aza/veh), VPS36 (ProbeSet 11739960_a_at) / Fold change (ACY-1035/veh), VPS36 (ProbeSet 11739960_a_at) / RFU SYPL1 (11715823_x_at) / Fold change /veh SYPL1 (11715823_x_at) / RFU IGFBP7 (11715501_s_at) / Fold change /veh IGFBP7 (11715501_s_at) / RFU REEP3 (11722064_at) / Fold change /veh REEP3 (11722064_at) / RFU IGLL1 (11728026_x_at) / Fold change /veh IGLL1 (11728026_x_at): dose or concentration left out as unconfirmed
# Settings: ProbeSet 11739263_x_at; LIST D
compound,measurement,value
Nc1ncn([C@@H]2O[C@H](CO)[C@@H](O)[C@H]2O)c(=O)n1 [azacitidine],"RFU, VPS4B",59.01 RFU
